# Assay results from ChEMBL document CHEMBL3414444, “Antiplasmodial activity: the first proof of inhibition of heme crystallization by marine isonitriles” (Eur J Med Chem, 2015).
# Key:
# [1] = system: Plasmodium falciparum; experiment: Antiplasmodial activity against Plasmodium falciparum K1; format: functional, organism-based
# [2] = Inhibition of beta-hematin formation after 3 to 5 mins by EBHIA assay; format: physicochemical
# [3] = system: Plasmodium falciparum; experiment: Antiplasmodial activity against Plasmodium falciparum D6; format: functional, organism-based
# [4] = system: Plasmodium falciparum; experiment: Antiplasmodial activity against Plasmodium falciparum W2; format: functional, organism-based
# [5] = system: Plasmodium falciparum; experiment: Antiplasmodial activity against Plasmodium falciparum NF54; format: functional, organism-based
IC50 [1] [µM],inhibition (INH) [2] [%],IC50 [3] [µM],IC50 [5] [µM],Compound,IC50 [4] [µM]
0.024,26,0.084,,[C-]#[N+][C@@]1(C)CC[C@H]2[C@H]3[C@H]4C(=CC(C)(C)C[C@@H]4C[C@@H]2C)CC[C@@H]31,0.024
> 30,,,,CC(C)=CCC[C@@H](C)[C@H]1CC[C@](C)(N=C=S)[C@H]2CCC(C)=C[C@H]12,
,62,,,[C-]#[N+][C@]1(C)CC[C@H](/C(C)=C\C=C\C(C)C)CC1,

# Continued, molecule first:
Compound,IC50 [1] [µM],inhibition (INH) [2] [%],IC50 [3] [µM],IC50 [5] [µM],IC50 [4] [µM]
[C-]#[N+][C@@]1(C)CC[C@H]2[C@H]3[C@@H]4[C@H](C[C@@H](C)[C@@](C)(N=C=O)[C@H]4CC[C@@H]31)C[C@@H]2C,0.009,,,,
CC1=CC2C(CC1)[C@](C)(N=C=S)CC[C@@H]2C(C)C (stereo partly drawn),5.7,71,,5.7,
[C-]#[N+][C@@]1(C)CC[C@H]2[C@H]3[C@@H](C(=C)CC[C@@H]31)[C@@H](C=C(C)C)C[C@@H]2C,,14,,,0.423
CCN(CC)CCCC(C)Nc1ccnc2cc(Cl)ccc12 (stereo not drawn) [CHLOROQUINE],,4,,,
